Laboratory results as given in paper PMC10515640, “Structure-Based Optimization of Covalent, Small-Molecule Stabilizers of the 14-3-3σ/ERα Protein–Protein Interaction from Nonselective Fragments” (Journal of the American Chemical Society, 2023).

What was measured:
14-3-3σ/ERα [1] = target: T1, 14-3-3σ/ERα (Homo sapiens, UniProt P03372+P31947); experiment: Fluorescence anisotropy protein titration, FAM-labeled ERα peptide; format: binding; conditions: 10 nM FAM-ERα peptide; for X Fold stabilization (100 µM compound) of 14-3-3σ/ERα: versus DMSO reference
T1 construct: The 14-3-3 σ isoform (full-length for mass spectrometry and fluorescence anisotropy assays, ΔC for crystallography); made in house; host or cells: E. coli Rosetta 2(DE3)pLysS, pPROEX HTb vector
Description: To evaluate compound-mediated stabilization of the 14-3-3σ/ERα complex directly, FA protein titrations were performed at a saturating concentration of compound. FA protein titrations allowed the quantification of the cooperative effect by comparing the apparent dissociation constants (appKD) of the binary and ternary complexes. 14-3-3σ was titrated into 10 nM FAM-labeled ERα peptide in the presence of DMSO or 100 μM of the compounds (Table S4). […]
diluted in buffer (10 mM HEPES, pH 7.5, 150 mM NaCl, 0.1% Tween20, 1 mg/mL Bovine Serum Albumin (BSA; Sigma-Aldrich). Final DMSO in the assay was always 1%. […]
Protein titrations were made by titrating 14-3-3σ in a 2-fold dilution series (starting at 300 µM) to a mix of fluorescein-labeled peptide (10 nM) and DMSO or compound (100 µM). Fluorescence anisotropy measurements were performed after overnight incubation at room temperature. […]
(§1) Wells containing only FAM-peptide were used to set as G-factor at 35 mP. Data reported are at endpoint. EC50 and apparent Kd values were obtained from fitting the data with a four-parameter logistic model (4PL) in GraphPad Prism 7 for Windows. Data was obtained and averaged based on either three (compound titrations) or two (protein titrations) independent experiments.

14-3-3σ/ERα [2] = target: T1, 14-3-3σ/ERα; experiment: Mass spectrometry dose response, compound binding to 14-3-3σ in the presence of ERα phosphopeptide; conditions: 100 nM compound, 100 nM 14-3-3σ, ERα-peptide 2 µM
Method in brief: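 Covalent labeling of Cys38 on 14-3-3σ was tracked by LC-MS on a Waters Acquity UPLC/Xevo G2-XS Q-Tof, with samples desalted on a Protein BEH-C4 column. Full-length wild type 14-3-3σ (100 nM) plus ERα phosphopeptide was mixed with compound in 10 mM TRIS, pH 8.0, at 50 μl per well. Percent bound was measured at several time points.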

14-3-3σ = target: T2, 14-3-3σ (Homo sapiens, UniProt P31947); experiment: Mass spectrometry dose response, compound binding to 14-3-3σ in the absence of peptide (apo); conditions: 100 nM compound, 100 nM 14-3-3σ
T2 construct: The 14-3-3 σ isoform (full-length for mass spectrometry and fluorescence anisotropy assays, ΔC for crystallography); made in house; host or cells: E. coli Rosetta 2(DE3)pLysS, pPROEX HTb vector
T2 sequence (P31947 1-248): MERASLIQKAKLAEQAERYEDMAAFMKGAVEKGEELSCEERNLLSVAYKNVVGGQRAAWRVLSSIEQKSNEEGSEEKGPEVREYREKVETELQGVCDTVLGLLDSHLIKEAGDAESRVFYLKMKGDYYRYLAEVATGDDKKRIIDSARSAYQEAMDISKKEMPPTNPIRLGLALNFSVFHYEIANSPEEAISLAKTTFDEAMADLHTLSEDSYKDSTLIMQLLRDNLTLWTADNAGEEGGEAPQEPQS
Method in brief: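 This apo mass spectrometry assay tracked adduct formation between compounds and the native cysteine of 14-3-3σ in the absence of any peptide. Wells held 100 nM protein in 10 mM TRIS pH 8.0 with a 3-fold compound dilution series, final volume 50 μl. Injections of 6 μl were taken at 1h, 8h, 16h and 24h, and dose responses were fitted with a four-parameter variable-slope model in GraphPad Prism.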

14-3-3σ/ERα [3] = target: T1, 14-3-3σ/ERα; experiment: Fluorescence anisotropy compound titration, FAM-labeled ERα peptide; format: binding; conditions: 10 nM ERα-FAM labeled peptide, 1 µM 14-3-3σ, overnight incubation (24 h); read-out: EC50 value ERα (FA compound titration)
Method in brief: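 Compounds, serially diluted 2-fold from a top concentration of 500 or 1000 µM, were added to 10 nM FAM-labeled ERα peptide plus 1 µM 14-3-3σ in 10 mM HEPES pH 7.5, 150 mM NaCl, 0.1% Tween20, 1 mg/mL BSA (1% DMSO). Anisotropy was measured after overnight room-temperature incubation, and EC50 values were derived by four-parameter logistic fitting averaged over three independent experiments.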

14-3-3σ/C-RAF [4] = target: T3, 14-3-3σ/C-RAF (Homo sapiens, UniProt P31947); experiment: Fluorescence anisotropy compound titration, FAM-labeled C-RAF peptide; format: binding; conditions: 10 nM C-RAF-FAM labeled peptide, 5 µM 14-3-3σ, overnight incubation; read-out: EC50 value C-RAF (FA compound titration)
T3 construct: The 14-3-3 σ isoform (full-length for mass spectrometry and fluorescence anisotropy assays, ΔC for crystallography); made in house; host or cells: E. coli Rosetta 2(DE3)pLysS, pPROEX HTb vector
T3 sequence (P31947 1-248): T2 sequence (P31947 1-248)
From the text: Two orthogonal assays were developed for screening. For the primary assay, mass spectrometry (MS) was used to monitor the formation of the covalent bond between the compound and the native cysteine (Cys38 on 14-3-3σ) (Figure 1D). The assay was first performed in the absence of peptide to determine binding to 14-3-3σ only (apo screening, D1) and then in the presence of both 14-3-3σ and the peptide as an indication of how much the peptide stabilized compound binding (D2). […] As a secondary assay, fluorescence anisotropy (FA) was used. In this case, compounds were titrated to mixtures of 14-3-3σ and FAM-labeled peptides. […] Thus, the two assays are highly complementary; the MS assay reports on compound binding and the FA assay reports on peptide binding. […]
diluted in buffer (10 mM HEPES, pH 7.5, 150 mM NaCl, 0.1% Tween20, 1 mg/mL Bovine Serum Albumin (BSA; Sigma-Aldrich). Final DMSO in the assay was always 1%. Dilution series of 14-3-3 proteins or compounds were made in […]
Compound titrations were made by titrating the compound in a 2-fold dilution series (starting at 500 or 1000 µM) to a mix of fluorescein-labeled peptide (10 nM) and 14-3-3σ (concentration at approximately the EC20 to EC30 value of the protein-peptide complex; 1 µM for ERα and 5 µM for C-RAF). Using the ~EC25 value makes the assay sensitive for measuring an increase in PPI formation. Fluorescence anisotropy measurements were performed directly and after overnight incubation at room temperature. […]
as §1

14-3-3σ/C-RAF [5] = target: T3, 14-3-3σ/C-RAF; experiment: Mass spectrometry dose response, compound binding to 14-3-3σ in the presence of C-RAF phosphopeptide; conditions: 100 nM compound, 100 nM 14-3-3σ, C-RAF peptide 18 µM
Method in brief: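 Compound stocks of 50 mM in DMSO were serially diluted 3-fold to give 19-point dose responses topping out at 1 mM, then 1000 nl was transferred into 50 μl wells holding 100 nM full-length wild type 14-3-3σ plus C-RAF phosphopeptide. Mass spectrometry measured percent compound bound to Cys38, with curves fitted in GraphPad Prism using a four-parameter variable-slope model.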

SMILES | X Fold stabilization (100 µM compound) of 14-3-3σ/ERα (14-3-3σ/ERα [1]) | Percentage (%) bound of compound to 14-3-3σ, ERα 1h (14-3-3σ/ERα [2]) | Percentage (%) bound of compound to 14-3-3σ, ERα 8h (14-3-3σ/ERα [2]) | Percentage (%) bound of compound to 14-3-3σ, ERα 16h (14-3-3σ/ERα [2]) | Percentage (%) bound of compound to 14-3-3σ, ERα 24h (14-3-3σ/ERα [2]) | Percentage (%) bound of compound to 14-3-3σ, APO 1h (14-3-3σ) | Percentage (%) bound of compound to 14-3-3σ, APO 8h (14-3-3σ) | Percentage (%) bound of compound to 14-3-3σ, APO 16h (14-3-3σ) | Percentage (%) bound of compound to 14-3-3σ, APO 24h (14-3-3σ) | EC50 (14-3-3σ/ERα [3]) | EC50 (14-3-3σ/C-RAF [4]) | Percentage (%) bound of compound to 14-3-3σ, CRAF 1h (14-3-3σ/C-RAF [5]) | Percentage (%) bound of compound to 14-3-3σ, CRAF 8h (14-3-3σ/C-RAF [5]) | Percentage (%) bound of compound to 14-3-3σ, CRAF 24h (14-3-3σ/C-RAF [5]; 24h) | Percentage (%) bound of compound to 14-3-3σ, CRAF 24h (14-3-3σ/C-RAF [5]; head prints 24h) | Kd (14-3-3σ/ERα [1]; 100 µM compound, overnight incubation)
C=CC(C)(C)OCC1OC(OC2C3=C(C(C)COC(C)=O)CC(O)C3(C)C=C3C(COC)CCC3C(C)C2O)C(O)C(OC(C)=O)C1O (stereo not shown) [FC-A, Fusicoccin-A, reference compound] | 166 fold | – | – | – | – | – | – | – | – | – | – | – | – | – | – | –
CC(C)(Oc1ccc(Cl)cc1)C(=O)N1CCC(CCNC(=O)CCl)CC1 [compound 28] | – | 0.3% | 1.5% | 4.2% | 10.9% | 1.0% | 1.0% | 1.9% | 1.9% | 24 ± 16 µM | 40 ± 1 µM | 3.1% | 7.5% | 40.1% | 22.1% | –
O=C(CCl)NCC1CCN(C(=O)C2(Oc3ccc(Cl)cc3)CCOCC2)CC1 [compound 126] | – | 1.7% | 6.2% | 9.1% | 15.1% | 0% | 0% | 0% | 1.0% | 9 ± 2 µM | > 150 µM | 0.0% | 1.0% | 4.7% | 3.6% | –
O=C(CCl)NCC1CCN(C(=O)C2(Nc3ccc(Cl)cc3)CC2)CC1 [compound 97] | – | 1.0% | 2.5% | 5.8% | 21.3% | 0.3% | 0.4% | 0.8% | 5.9% | 15 ± 1 µM | 101 ± 15 µM | 1.0% | 1.7% | 5.5% | 5.1% | –

Next, values leading:

X Fold stabilization (100 µM compound) of 14-3-3σ/ERα (14-3-3σ/ERα [1]) | Percentage (%) bound of compound to 14-3-3σ, ERα 1h (14-3-3σ/ERα [2]) | Percentage (%) bound of compound to 14-3-3σ, ERα 8h (14-3-3σ/ERα [2]) | Percentage (%) bound of compound to 14-3-3σ, ERα 16h (14-3-3σ/ERα [2]) | Percentage (%) bound of compound to 14-3-3σ, ERα 24h (14-3-3σ/ERα [2]) | Percentage (%) bound of compound to 14-3-3σ, APO 1h (14-3-3σ) | Percentage (%) bound of compound to 14-3-3σ, APO 8h (14-3-3σ) | Percentage (%) bound of compound to 14-3-3σ, APO 16h (14-3-3σ) | Percentage (%) bound of compound to 14-3-3σ, APO 24h (14-3-3σ) | EC50 (14-3-3σ/ERα [3]) | EC50 (14-3-3σ/C-RAF [4]) | Percentage (%) bound of compound to 14-3-3σ, CRAF 1h (14-3-3σ/C-RAF [5]) | Percentage (%) bound of compound to 14-3-3σ, CRAF 8h (14-3-3σ/C-RAF [5]) | Percentage (%) bound of compound to 14-3-3σ, CRAF 24h (14-3-3σ/C-RAF [5]; 24h) | Percentage (%) bound of compound to 14-3-3σ, CRAF 24h (14-3-3σ/C-RAF [5]; head prints 24h) | Kd (14-3-3σ/ERα [1]; 100 µM compound, overnight incubation) | SMILES
– | 11.3% | 22.2% | 42.2% | 64.2% | 0.8% | 0.9% | 1.8% | 2.4% | 37 ± 5 µM | > 150 µM | 0.5% | 1.8% | 3.4% | 2.6% | – | NC1CCC(Oc2ccc(Cl)cc2)(C(=O)N2CCC(CNC(=O)CCl)CC2)CC1 (stereo not shown) [compound 135]
– | 6.9% | 8.6% | 48.4% | 76.6% | 0% | 0% | 1.0% | 5.8% | 16 ± 1 µM | > 150 µM | 0.4% | 1.9% | 8.4% | 3.8% | – | O=C(CCl)N1CC2(CCN(C(=O)C3(Nc4ccc(Cl)cc4)CCOCC3)CC2)C1 [compound 160]
– | 5.0% | 5.0% | 8.4% | 41.4% | 1.0% | 1.0% | 1.5% | 3.0% | 97 ± 9 µM | > 150 µM | 0.6% | 0.7% | 2.1% | 1.6% | – | O=C(CCl)NCC1CC2(CCN(C(=O)C3(Nc4ccc(Cl)cc4)CCOCC3)CC2)C1 [compound 174]
55 fold | 7.6% | 16.2% | 37.7% | 86.7% | 0.6% | 0.8% | 14.2% | 17.7% | 4 ± 0.4 µM | – | 0% | 1.0% | 23.3% | 3.4% | 0.027 µM | O=C(CCl)NCCCC1CCN(C(=O)C2(Nc3ccc(Cl)cc3)CCOCC2)CC1 [compound 149]
